Experimental data published in PubChem BioAssay AID248 (DTP/NCI, 2004).
Values joined by “and” are separate entries in the source; they are usually repeats but may differ in a detail not shown here. Equal entries are not always repeated. Inconclusive results and toxic doses are left out. Cut-off read from the data, not from the text of the source: active = T/C of 150% or more; inactive = T/C below 125%.

System: L1210 leukemia ip in BDF1 mice, survival T/C
Experiment: NCI In Vivo Anticancer Drug Screen. Data for tumor model L1210 Leukemia (intraperitoneal) in B6D2F1 (BDF1) mice
Conditions: endpoint: mean survival time, higher = longer survival
Procedure, shortened: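 Ratio derived from survival: compound-dosed mice over vehicle-dosed mice, all bearing a transplantable tumor.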

[1] = dose: 200.0 mg/kg/injection, schedule: Q04DX003 (ip), vehicle: Klucel (hydroxypropylcellulose) (HPC)
[2] = dose: 100.0 mg/kg/injection, schedule: Q01DX009 (ip), vehicle: saline with Tween-80
[3] = dose: 200.0 mg/kg/injection, schedule: Q01DX009 (ip), vehicle: saline with Tween-80
[4] = dose: 100.0 mg/kg/injection, schedule: Q04DX003 (ip), vehicle: saline with Tween-80
[5] = dose: 200.0 mg/kg/injection, schedule: Q04DX003 (ip), vehicle: saline with Tween-80
[6] = dose: 400.0 mg/kg/injection, schedule: Q04DX003 (ip), vehicle: saline with Tween-80
[7] = dose: 100.0 mg/kg/injection, schedule: Q01DX001 (ip), vehicle: saline
[8] = dose: 200.0 mg/kg/injection, schedule: Q01DX001 (ip), vehicle: saline
[9] = dose: 400.0 mg/kg/injection, schedule: Q01DX009 (ip), vehicle: saline with Tween-80

Measured: T/C

N#CC(O)c1ccccc1 (stereo not given)
inactive: dose: 2.5 mg/kg/injection, schedule: Q01DX009 (ip), vehicle: acetone 101 % of control | dose: 5.0 mg/kg/injection, schedule: Q01DX001 (ip), vehicle: carboxymethylcellulose (CMC) 95 % of control | dose: 5.0 mg/kg/injection, schedule: Q01DX009 (ip), vehicle: acetone 102 % of control | dose: 10.0 mg/kg/injection, schedule: Q01DX001 (ip), vehicle: carboxymethylcellulose (CMC) 91 % of control | dose: 10.0 mg/kg/injection, schedule: Q01DX009 (ip), vehicle: acetone 104 % of control

CC(N=Nc1ccccc1)/N=N/c1nn[nH]n1 (stereo not given)
inactive: dose: 100.0 mg/kg/injection, schedule: Q04DX003 (ip), vehicle: Klucel (hydroxypropylcellulose) (HPC) 100 % of control | [1] 94 % of control | dose: 400.0 mg/kg/injection, schedule: Q04DX003 (ip), vehicle: Klucel (hydroxypropylcellulose) (HPC) 96 % of control

NS(=O)(=O)c1ccc(N=Nc2ncc(CC(NC3=CC(=O)C(=O)c4ccccc43)C(=O)O)[nH]2)cc1 (stereo not given)
inactive: dose: 50.0 mg/kg/injection, schedule: Q01DX009 (ip), vehicle: saline 96 % of control | dose: 100.0 mg/kg/injection, schedule: Q01DX009 (ip), vehicle: saline 96 % of control | dose: 200.0 mg/kg/injection, schedule: Q01DX009 (ip), vehicle: saline 105 % of control

COc1cc(C=Nc2cccc(Cl)c2)ccc1N(CCCl)CCCl
inactive: dose: 12.5 mg/kg/injection, schedule: Q01DX Z (ip), vehicle: carboxymethylcellulose (CMC) 122 % of control | dose: 25.0 mg/kg/injection, schedule: Q01DX Z (ip), vehicle: carboxymethylcellulose (CMC) 120 % of control | dose: 35.0 mg/kg/injection, schedule: Q01DX015 (ip), vehicle: carboxymethylcellulose (CMC) 87 % of control

NC(=O)C(N)Cc1ccc(OCc2ccccc2)c(OCc2ccccc2)c1 (stereo not given)
inactive: dose: 100.0 mg/kg/injection, schedule: Q01DX001 (ip), vehicle: saline with Tween-80 92 % of control | [2] 101 % of control | dose: 200.0 mg/kg/injection, schedule: Q01DX001 (ip), vehicle: saline with Tween-80 94 % of control | [3] 95 % of control | dose: 400.0 mg/kg/injection, schedule: Q01DX001 (ip), vehicle: saline with Tween-80 86 % of control

O=C(O)/C=C\c1cccc([N+](=O)[O-])c1
inactive: [4] 92 % of control | [5] 93 % of control | [6] 92 % of control

COC(=O)C(I)C(OC)c1ccccc1 (stereo not given)
inactive: [4] 98 % of control | [5] 96 % of control | [6] 95 % of control

CCOC(=O)/C(C#N)=C\c1cc(OC)ccc1OC
inactive: [2] 101 % of control | [4] 96 % of control | [5] 94 % of control | [6] 93 % of control

COC1OC2COC(c3ccccc3)OC2C2OC(=S)OC12 (stereo not given)
inactive: dose: 25.0 mg/kg/injection, schedule: Q04DX002 (ip), vehicle: Klucel (hydroxypropylcellulose) (HPC) 104 % of control | dose: 50.0 mg/kg/injection, schedule: Q04DX002 (ip), vehicle: Klucel (hydroxypropylcellulose) (HPC) 97 % of control | [7] 102 % of control | dose: 100.0 mg/kg/injection, schedule: Q04DX002 (ip), vehicle: Klucel (hydroxypropylcellulose) (HPC) 104 % of control | dose: 100.0 mg/kg/injection, schedule: Q04DX002 (ip), vehicle: saline 93 % of control | [8] 98 % of control | dose: 200.0 mg/kg/injection, schedule: Q04DX002 (ip), vehicle: saline 100 % of control | dose: 400.0 mg/kg/injection, schedule: Q01DX001 (ip), vehicle: saline 98 % of control | dose: 400.0 mg/kg/injection, schedule: Q04DX002 (ip), vehicle: saline 107 % of control

O=c1c(CCO)c(C2CC2)n2n1CCCC2
inactive: dose: 9.38 mg/kg/injection, schedule: Q01DX001 (ip), vehicle: other 94 % of control | dose: 18.75 mg/kg/injection, schedule: Q01DX001 (ip), vehicle: other 103 % of control

CC(C)(C)NC(=O)Oc1ccc2ccccc2c1
inactive: dose: 100.0 mg/kg/injection, schedule: Q01DX009 (ip), vehicle: other 96 % of control | dose: 200.0 mg/kg/injection, schedule: Q01DX009 (ip), vehicle: other 102 % of control | dose: 400.0 mg/kg/injection, schedule: Q01DX009 (ip), vehicle: other 100 % of control

OC(CC(CC(O)(C(F)(F)F)C(F)(F)F)=NNc1ccccc1)(C(F)(F)F)C(F)(F)F
inactive: dose: 25.0 mg/kg/injection, schedule: Q04DX003 (ip), vehicle: saline with Tween-80 101 % of control | dose: 50.0 mg/kg/injection, schedule: Q04DX003 (ip), vehicle: saline with Tween-80 101 % of control | [4] 93 % of control and 90 % of control

CCOC(=O)CN=NNc1[nH]ncc1C(N)=O
inactive: dose: 100.0 mg/kg/injection, schedule: Q01DX001 (ip), vehicle: other 102 % of control | [2] 115 % of control | dose: 100.0 mg/kg/injection, schedule: Q04DX003 (ip), vehicle: other 101 % of control | dose: 200.0 mg/kg/injection, schedule: Q01DX001 (ip), vehicle: other 104 % of control | [3] 115 % of control | dose: 200.0 mg/kg/injection, schedule: Q04DX003 (ip), vehicle: other 113 % of control | dose: 400.0 mg/kg/injection, schedule: Q01DX001 (ip), vehicle: other 105 % of control | [9] 116 % of control | dose: 400.0 mg/kg/injection, schedule: Q04DX003 (ip), vehicle: other 104 % of control

O=C(N/N=C\c1ccc(Cl)cc1Cl)C1CC1
inactive: dose: 15.0 mg/kg/injection, schedule: Q01DX Z (ip), vehicle: carboxymethylcellulose (CMC) 97 % of control | dose: 30.0 mg/kg/injection, schedule: Q01DX Z (ip), vehicle: carboxymethylcellulose (CMC) 92 % of control | dose: 30.0 mg/kg/injection, schedule: Q01DX Z (oral), vehicle: carboxymethylcellulose (CMC) 98 % of control | dose: 60.0 mg/kg/injection, schedule: Q01DX Z (ip), vehicle: carboxymethylcellulose (CMC) 95 % of control | dose: 60.0 mg/kg/injection, schedule: Q01DX Z (oral), vehicle: carboxymethylcellulose (CMC) 100 % of control | dose: 120.0 mg/kg/injection, schedule: Q01DX Z (oral), vehicle: carboxymethylcellulose (CMC) 121 % of control

CC1([N+](=O)[O-])COP(=O)(Nc2ccc(Cl)cc2)OC1 (stereo not given)
inactive: dose: 100.0 mg/kg/injection, schedule: Q01DX001 (ip), vehicle: carboxymethylcellulose (CMC) 95 % of control | dose: 200.0 mg/kg/injection, schedule: Q01DX001 (ip), vehicle: carboxymethylcellulose (CMC) 93 % of control | dose: 400.0 mg/kg/injection, schedule: Q01DX001 (ip), vehicle: carboxymethylcellulose (CMC) 98 % of control

C=C1C(=O)OC2CC(C)C3CC(OCCCl)OC(OCCCl)C3(C)CC12 (stereo not given)
inactive: dose: 1.25 mg/kg/injection, schedule: Q01DX005 (ip), vehicle: other 104 % of control | dose: 2.5 mg/kg/injection, schedule: Q01DX005 (ip), vehicle: other 106 % of control | dose: 5.0 mg/kg/injection, schedule: Q01DX005 (ip), vehicle: other 101 % of control | dose: 10.0 mg/kg/injection, schedule: Q01DX005 (ip), vehicle: other 101 % of control | dose: 20.0 mg/kg/injection, schedule: Q01DX005 (ip), vehicle: other 113 % of control

CC(C)(C[NH-])C[NH-].CC(C)(C[NH-])C[NH-].CC(C)(C[NH-])C[NH-].[Co]
inactive: dose: 48.0 mg/kg/injection, schedule: Q01DX Z (ip), vehicle: saline 121 % of control | dose: 73.0 mg/kg/injection, schedule: Q01DX Z (ip), vehicle: saline 121 % of control | dose: 110.0 mg/kg/injection, schedule: Q01DX Z (ip), vehicle: saline 119 % of control | dose: 165.0 mg/kg/injection, schedule: Q01DX Z (ip), vehicle: saline 116 % of control

Cc1ccc(O)c(N=O)c1.[Cu+2]
inactive: dose: 50.0 mg/kg/injection, schedule: Q01DX001 (ip), vehicle: saline 97 % of control | [7] 103 % of control | [8] 103 % of control

Cc1ccc(S(=O)(=O)Nc2ccccc2)c(C(O)(c2ccccc2)c2ccccc2)c1
inactive: [2] 91 % of control | [3] 96 % of control | [9] 93 % of control

Cc1ccc(NC(=O)C(Cl)Cl)cc1Cl
inactive: dose: 50.0 mg/kg/injection, schedule: Q01DX009 (ip), vehicle: Klucel (hydroxypropylcellulose) (HPC) 103 % of control | dose: 100.0 mg/kg/injection, schedule: Q01DX009 (ip), vehicle: Klucel (hydroxypropylcellulose) (HPC) 107 % of control | dose: 200.0 mg/kg/injection, schedule: Q01DX009 (ip), vehicle: Klucel (hydroxypropylcellulose) (HPC) 98 % of control

CCCCCCCCCCCCCCCCCOc1ccc(Sc2ccc([N+](=O)[O-])cc2)cc1
inactive: [1] 92 % of control

OCCSSSCCO
inactive: dose: 75.0 mg/kg/injection, schedule: Q01DX001 (ip), vehicle: other 105 % of control | dose: 150.0 mg/kg/injection, schedule: Q01DX001 (ip), vehicle: other 115 % of control
